Test [1] addresses Casein kinase I isoform delta (Homo sapiens, UniProt P48730). As to the kind of experiment: Selectivity interaction (Kinase panel (Z-LYTE Assay)) EUB0001632a CSNK1D. As to conditions: at 10 µM.
In test [2] the target is Protein kinase C beta type (Homo sapiens, UniProt P05771). As to the kind of experiment: Selectivity interaction (Kinase panel (Z-LYTE Assay)) EUB0001632a PRKCB. The note with it: at 10 µM.
Test [3] deals with T1, Mitogen-activated protein kinase kinase kinase 7 (Homo sapiens) (UniProt O43318).
T1 sequence (whole entry): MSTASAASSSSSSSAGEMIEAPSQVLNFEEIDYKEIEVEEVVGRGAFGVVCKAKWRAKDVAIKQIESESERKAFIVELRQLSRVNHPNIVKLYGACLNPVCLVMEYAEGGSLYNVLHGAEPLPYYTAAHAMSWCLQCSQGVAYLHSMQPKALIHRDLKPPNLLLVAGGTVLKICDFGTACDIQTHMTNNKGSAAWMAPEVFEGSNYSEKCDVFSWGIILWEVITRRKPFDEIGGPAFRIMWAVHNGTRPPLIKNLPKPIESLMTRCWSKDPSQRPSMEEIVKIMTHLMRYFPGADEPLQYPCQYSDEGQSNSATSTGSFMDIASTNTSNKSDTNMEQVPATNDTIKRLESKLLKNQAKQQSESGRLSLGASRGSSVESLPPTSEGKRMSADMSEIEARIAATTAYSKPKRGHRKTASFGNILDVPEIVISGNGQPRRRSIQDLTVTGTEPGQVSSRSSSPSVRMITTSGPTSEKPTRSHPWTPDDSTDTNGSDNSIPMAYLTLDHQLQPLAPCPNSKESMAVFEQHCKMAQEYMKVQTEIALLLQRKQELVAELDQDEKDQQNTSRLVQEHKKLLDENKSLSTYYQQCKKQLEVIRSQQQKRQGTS
As to the kind of experiment: Selectivity interaction (Kinase panel (KiNativ target engagement assay in Jurkat cells)) EUB0001635a MAP3K7. The format is cell-based. As to conditions: Selectivity number of off-targets 0.0, Selectivity number of targets 233.0, Source Knowledge https://www.sciencedirect.com/science/article/pii/S2451945619300674?via%3Dihub, at 1 µM.

Test [4] concerns the target Serine/threonine-protein kinase SBK1 (Homo sapiens) (UniProt Q52WX2). As to the kind of experiment: Selectivity interaction (KinomeScan (DiscoverX)) EUB0000607a SBK1. The note with it: at 10 µM.
For test [5], the target named is Mitogen-activated protein kinase 14 (Homo sapiens, UniProt Q16539). As to the kind of experiment: Selectivity interaction (KinomeScan (DiscoverX)) EUB0001079a MAPK14. As to conditions: at 1 µM.
Test [6] concerns the target Casein kinase I isoform gamma-2 (Homo sapiens) (UniProt P78368). As to the kind of experiment: Selectivity interaction (KinomeScan (DiscoverX)) EUB0001619a CSNK1G2. As to conditions: at 1 µM.
For test [7], the target named is Serine/threonine-protein kinase 38 (Homo sapiens) (UniProt Q15208). As to the kind of experiment: Selectivity interaction (ActivX KiNativ screen (ex vivo kinase selectivity in human PBMCs)) EUB0001619a STK38. It is filed as cell-based. The note with it: PBMC, at 1 µM.
For test [8], the target named is T2, Ephrin type-B receptor 2 (Homo sapiens) (UniProt P29323).
T2 sequence (whole entry): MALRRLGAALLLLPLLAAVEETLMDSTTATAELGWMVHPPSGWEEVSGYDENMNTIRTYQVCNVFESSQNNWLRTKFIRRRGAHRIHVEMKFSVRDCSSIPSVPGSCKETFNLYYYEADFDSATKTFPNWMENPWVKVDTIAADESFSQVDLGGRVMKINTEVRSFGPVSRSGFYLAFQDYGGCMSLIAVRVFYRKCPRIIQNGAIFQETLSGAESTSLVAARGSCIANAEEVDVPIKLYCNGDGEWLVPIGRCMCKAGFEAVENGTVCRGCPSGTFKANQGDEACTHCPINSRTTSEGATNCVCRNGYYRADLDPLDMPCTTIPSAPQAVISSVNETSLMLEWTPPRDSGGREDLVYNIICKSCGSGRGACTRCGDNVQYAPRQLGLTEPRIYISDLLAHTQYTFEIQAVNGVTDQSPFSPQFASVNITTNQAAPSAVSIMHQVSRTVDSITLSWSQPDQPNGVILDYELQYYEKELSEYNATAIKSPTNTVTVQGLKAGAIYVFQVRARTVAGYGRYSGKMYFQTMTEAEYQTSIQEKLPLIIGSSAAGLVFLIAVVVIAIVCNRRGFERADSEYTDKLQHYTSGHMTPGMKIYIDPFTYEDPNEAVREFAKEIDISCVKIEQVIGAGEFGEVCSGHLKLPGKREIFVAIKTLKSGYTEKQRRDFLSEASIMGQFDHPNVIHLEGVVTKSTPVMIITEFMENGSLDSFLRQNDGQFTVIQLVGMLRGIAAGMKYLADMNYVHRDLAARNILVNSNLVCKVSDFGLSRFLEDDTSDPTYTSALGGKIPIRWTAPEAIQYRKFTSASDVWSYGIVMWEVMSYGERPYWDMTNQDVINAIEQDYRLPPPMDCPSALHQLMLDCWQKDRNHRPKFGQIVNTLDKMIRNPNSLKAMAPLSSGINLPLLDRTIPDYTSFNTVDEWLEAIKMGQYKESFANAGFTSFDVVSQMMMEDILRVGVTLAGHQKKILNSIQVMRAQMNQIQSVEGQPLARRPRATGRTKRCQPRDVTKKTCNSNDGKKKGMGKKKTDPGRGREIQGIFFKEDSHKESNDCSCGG
As to the kind of experiment: Selectivity interaction (Kinase panel (Invitrogen)) EUB0000639a EPHB2. As to conditions: at 200 nM.

Test [9] has as its target Serine/threonine-protein kinase 38-like (Homo sapiens) (UniProt Q9Y2H1). As to the kind of experiment: Selectivity interaction (KinomeScan (DiscoverX)) EUB0000695a STK38L. As to conditions: at 100 nM.
Test [10] deals with T3, TGF-beta receptor type-1 (Homo sapiens) (UniProt P36897).
T3 sequence (whole entry): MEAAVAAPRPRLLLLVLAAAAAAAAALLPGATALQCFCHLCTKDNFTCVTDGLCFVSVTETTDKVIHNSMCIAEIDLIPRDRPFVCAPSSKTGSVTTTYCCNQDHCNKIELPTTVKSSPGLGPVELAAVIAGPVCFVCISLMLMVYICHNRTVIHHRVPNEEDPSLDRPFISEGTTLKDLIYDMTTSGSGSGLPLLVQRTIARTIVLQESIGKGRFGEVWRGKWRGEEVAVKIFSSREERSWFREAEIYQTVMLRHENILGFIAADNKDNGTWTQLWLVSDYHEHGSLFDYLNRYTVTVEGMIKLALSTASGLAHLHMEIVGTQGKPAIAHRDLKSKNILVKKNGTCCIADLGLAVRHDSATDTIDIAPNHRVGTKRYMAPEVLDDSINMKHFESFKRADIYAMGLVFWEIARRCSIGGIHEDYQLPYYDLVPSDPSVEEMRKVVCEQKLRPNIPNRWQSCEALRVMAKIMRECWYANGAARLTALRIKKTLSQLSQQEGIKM
As to the kind of experiment: Selectivity interaction (KinomeScan (DiscoverX)) EUB0000695a TGFBR1. As to conditions: at 100 nM.

Test [11] addresses Serine/threonine-protein kinase N1 (Homo sapiens, UniProt Q16512). As to the kind of experiment: Selectivity interaction (ProQinase) EUB0000171b PKN1.

Sequence of Serine/threonine-protein kinase N1 (Q16512 2-942 limits assumed): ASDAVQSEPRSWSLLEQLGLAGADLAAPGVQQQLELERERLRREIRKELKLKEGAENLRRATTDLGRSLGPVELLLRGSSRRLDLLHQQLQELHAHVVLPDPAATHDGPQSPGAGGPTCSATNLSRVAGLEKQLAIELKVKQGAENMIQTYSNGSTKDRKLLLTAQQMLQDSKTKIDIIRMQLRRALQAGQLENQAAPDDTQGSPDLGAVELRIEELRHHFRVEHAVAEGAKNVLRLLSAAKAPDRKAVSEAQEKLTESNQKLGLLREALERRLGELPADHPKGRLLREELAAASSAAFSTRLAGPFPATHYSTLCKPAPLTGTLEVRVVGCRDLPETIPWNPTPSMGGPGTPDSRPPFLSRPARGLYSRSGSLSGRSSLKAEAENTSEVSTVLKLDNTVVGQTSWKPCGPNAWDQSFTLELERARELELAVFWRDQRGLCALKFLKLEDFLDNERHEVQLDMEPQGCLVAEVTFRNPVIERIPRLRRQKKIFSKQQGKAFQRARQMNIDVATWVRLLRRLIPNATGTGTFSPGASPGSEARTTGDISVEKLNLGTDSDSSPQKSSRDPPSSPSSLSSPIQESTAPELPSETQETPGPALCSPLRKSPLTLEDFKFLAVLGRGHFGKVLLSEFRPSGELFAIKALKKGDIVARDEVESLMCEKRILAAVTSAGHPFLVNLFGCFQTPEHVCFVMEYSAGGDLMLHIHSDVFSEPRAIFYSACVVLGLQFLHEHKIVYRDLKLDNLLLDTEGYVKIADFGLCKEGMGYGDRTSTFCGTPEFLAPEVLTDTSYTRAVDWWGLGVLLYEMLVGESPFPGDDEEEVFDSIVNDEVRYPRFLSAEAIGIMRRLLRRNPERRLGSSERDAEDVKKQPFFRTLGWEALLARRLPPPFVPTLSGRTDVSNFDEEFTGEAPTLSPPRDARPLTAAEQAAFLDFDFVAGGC
Sequence of Mitogen-activated protein kinase 14 (Q16539 whole entry, canonical isoform): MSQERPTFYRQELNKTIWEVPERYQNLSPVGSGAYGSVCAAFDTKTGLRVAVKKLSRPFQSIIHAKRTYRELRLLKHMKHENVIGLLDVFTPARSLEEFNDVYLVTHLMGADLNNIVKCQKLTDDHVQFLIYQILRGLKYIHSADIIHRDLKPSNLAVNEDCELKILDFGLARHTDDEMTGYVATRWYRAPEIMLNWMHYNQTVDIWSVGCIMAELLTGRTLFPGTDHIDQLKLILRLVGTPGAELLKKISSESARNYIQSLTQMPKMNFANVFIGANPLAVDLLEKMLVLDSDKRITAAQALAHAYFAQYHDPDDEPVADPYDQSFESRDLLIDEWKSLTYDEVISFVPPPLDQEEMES
Sequence of Casein kinase I isoform gamma-2 (Homo sapiens) (P78368 whole entry, looked up, canonical isoform): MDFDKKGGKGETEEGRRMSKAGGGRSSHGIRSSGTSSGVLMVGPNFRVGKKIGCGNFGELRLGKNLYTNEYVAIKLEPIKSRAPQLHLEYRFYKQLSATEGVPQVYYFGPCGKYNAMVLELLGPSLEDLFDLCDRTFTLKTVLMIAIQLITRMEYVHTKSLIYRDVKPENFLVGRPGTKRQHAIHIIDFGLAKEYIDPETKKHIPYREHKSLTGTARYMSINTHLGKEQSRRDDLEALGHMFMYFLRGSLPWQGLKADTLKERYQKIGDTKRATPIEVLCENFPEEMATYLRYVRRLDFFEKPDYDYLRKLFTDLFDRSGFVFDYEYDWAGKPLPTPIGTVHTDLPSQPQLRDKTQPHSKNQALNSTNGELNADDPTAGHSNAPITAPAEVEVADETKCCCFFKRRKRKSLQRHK
Sequence of Serine/threonine-protein kinase 38-like (Homo sapiens) (Q9Y2H1 2-464 limits assumed): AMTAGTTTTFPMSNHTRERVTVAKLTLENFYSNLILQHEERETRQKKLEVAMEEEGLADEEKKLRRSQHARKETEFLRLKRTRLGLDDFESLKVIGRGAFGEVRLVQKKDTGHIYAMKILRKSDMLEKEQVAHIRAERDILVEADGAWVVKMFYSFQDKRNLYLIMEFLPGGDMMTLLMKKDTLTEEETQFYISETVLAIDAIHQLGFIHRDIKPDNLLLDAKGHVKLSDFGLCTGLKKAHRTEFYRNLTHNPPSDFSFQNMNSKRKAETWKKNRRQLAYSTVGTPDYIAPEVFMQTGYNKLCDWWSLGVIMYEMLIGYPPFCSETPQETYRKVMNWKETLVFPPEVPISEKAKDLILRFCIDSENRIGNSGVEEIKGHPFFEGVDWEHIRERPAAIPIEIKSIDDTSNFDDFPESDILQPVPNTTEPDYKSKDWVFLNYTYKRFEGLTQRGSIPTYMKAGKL
Sequence of Serine/threonine-protein kinase 38 (Homo sapiens) (Q15208 2-465 limits assumed): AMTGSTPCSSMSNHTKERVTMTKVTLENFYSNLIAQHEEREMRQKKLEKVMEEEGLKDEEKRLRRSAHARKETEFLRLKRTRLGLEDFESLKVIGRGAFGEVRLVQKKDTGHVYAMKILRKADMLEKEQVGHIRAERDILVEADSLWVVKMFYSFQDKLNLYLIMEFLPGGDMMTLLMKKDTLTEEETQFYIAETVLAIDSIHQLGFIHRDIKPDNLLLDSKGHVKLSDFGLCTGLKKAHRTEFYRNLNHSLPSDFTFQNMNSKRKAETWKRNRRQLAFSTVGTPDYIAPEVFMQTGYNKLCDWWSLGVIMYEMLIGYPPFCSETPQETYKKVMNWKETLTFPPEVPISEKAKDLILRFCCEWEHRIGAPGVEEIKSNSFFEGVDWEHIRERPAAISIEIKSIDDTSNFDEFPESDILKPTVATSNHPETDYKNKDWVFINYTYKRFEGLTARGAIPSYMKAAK
Sequence of Casein kinase I isoform delta (P48730 whole entry, looked up, canonical isoform): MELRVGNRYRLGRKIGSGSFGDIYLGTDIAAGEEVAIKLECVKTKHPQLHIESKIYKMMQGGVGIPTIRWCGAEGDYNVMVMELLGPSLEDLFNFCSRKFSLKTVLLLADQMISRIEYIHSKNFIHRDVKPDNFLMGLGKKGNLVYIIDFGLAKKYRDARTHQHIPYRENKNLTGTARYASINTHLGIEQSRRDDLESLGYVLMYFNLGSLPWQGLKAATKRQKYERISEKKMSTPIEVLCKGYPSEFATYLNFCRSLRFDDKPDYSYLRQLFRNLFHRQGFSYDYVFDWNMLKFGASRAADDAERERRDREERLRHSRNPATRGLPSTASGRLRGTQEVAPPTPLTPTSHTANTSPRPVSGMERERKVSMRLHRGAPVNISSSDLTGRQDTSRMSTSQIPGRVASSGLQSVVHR
Sequence of Serine/threonine-protein kinase SBK1 (Homo sapiens) (Q52WX2 whole entry): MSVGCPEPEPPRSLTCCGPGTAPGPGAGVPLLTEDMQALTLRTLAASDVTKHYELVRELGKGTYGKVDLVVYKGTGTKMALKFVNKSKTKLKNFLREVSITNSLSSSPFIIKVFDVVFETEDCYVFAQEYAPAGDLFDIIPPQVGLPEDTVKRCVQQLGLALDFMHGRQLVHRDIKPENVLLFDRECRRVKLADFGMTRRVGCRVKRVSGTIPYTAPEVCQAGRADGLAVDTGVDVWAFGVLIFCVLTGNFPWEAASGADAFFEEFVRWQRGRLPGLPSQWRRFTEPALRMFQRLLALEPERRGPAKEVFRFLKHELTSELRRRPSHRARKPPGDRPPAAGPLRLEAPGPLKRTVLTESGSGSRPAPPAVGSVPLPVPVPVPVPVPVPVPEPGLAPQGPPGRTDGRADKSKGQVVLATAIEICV
Sequence of Protein kinase C beta type (P05771 2-671 limits assumed): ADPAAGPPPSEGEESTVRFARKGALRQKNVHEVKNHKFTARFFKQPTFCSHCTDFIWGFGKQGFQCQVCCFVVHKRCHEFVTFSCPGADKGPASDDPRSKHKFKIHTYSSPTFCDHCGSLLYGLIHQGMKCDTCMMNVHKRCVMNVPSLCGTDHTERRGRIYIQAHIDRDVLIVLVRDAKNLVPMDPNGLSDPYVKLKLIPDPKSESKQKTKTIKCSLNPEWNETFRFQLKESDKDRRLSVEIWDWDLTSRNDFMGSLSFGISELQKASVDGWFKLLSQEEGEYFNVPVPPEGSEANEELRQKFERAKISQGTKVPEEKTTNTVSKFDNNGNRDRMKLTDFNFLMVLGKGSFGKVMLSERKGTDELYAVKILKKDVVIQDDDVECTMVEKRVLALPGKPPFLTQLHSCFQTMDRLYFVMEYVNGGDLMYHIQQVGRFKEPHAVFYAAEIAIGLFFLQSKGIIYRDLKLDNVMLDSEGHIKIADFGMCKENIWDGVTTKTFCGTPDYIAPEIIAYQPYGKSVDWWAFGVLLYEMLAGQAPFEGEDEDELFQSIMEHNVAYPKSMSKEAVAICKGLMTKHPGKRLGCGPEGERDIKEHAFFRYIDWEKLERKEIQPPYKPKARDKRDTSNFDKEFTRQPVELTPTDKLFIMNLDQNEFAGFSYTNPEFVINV

As for `Cn1cc(-n2cnc3c(NCc4nc5cc(Cl)c(Cl)cc5[nH]4)nc(N4CCOCC4)nc32)cn1`, the results for the % of control in [1] and in test [2] were 23.3% and 15.6%, respectively.

As to `C=CC(=O)Nc1ccc(C(=O)Nc2[nH]nc3c2CN(C(=O)N[C@H](CN(C)C)c2ccccc2)C3(C)C)cc1`, the % of engagement in test [3] was -4.8%.

Turning to `CNC(=O)Nc1ccc(-c2nc(N3CC4CCC(C3)O4)c3cnn(C4CCC5(CC4)OCCO5)c3n2)cc1`, in [4], the % of control was determined as 100%.

Consider `Nc1cnc(N2CCc3cc(S(=O)(=O)Nc4c(F)cc(Cl)cc4F)cc(N4CCCC4=O)c32)nc1` [TP-020n], for which, in test [5], the % of control was 100%.

Take `N#Cc1cccc(-c2c[nH]c3ncnc(N4CCOCC4)c23)c1`: the % of control in test [6] was 89%. In test [7], the % of inhibition worked out at 3%.

Compound `CC[C@@H]1[C@H](F)C(=O)N[C@@H]1COc1nccc2cc(C(N)=O)c(OC)cc12` [ZIMLOVISERTIB] yielded a % of inhibition in test [8] of 0.413%.

For the compound `Cc1cc(F)c(C(=O)Nc2cccc(-c3nncn3C(C)C)n2)cc1-n1cnc(C2CC2)c1`, the % of control in [9] worked out at 100%; in test [10], 90%.

Consider `C=CC(=O)Nc1cccc(C(=O)Nc2ccc(Nc3cc(-c4[nH]c(SC)nc4C)ccn3)cc2)c1`, for which the results for the % of control in test [11] (at 1 µM) and in test [11] (at 5 µM) were 100% and 91%, respectively.
